# In patent US8106033B2, “Composition and methods for the treatment of proliferative diseases” (priority 2005, dated 2012):
# Entries after “also recorded” stand apart in the source; their conditions may differ. Where two headings read alike, the source gives them in different places.
# What was measured:
# [1] = test system: DU145 tumor cells (human prostate cancer cell line); experiment: DU145 tumor xenograft in nude mice (Example 7); assay type: in vivo; settings: for effect on tumor growth (mean tumor volume): IP every other day, Compound A 200 mg/kg, oxaliplatin 5 mg/kg, alone or combined
# Protocol: At this time, animals were divided into four groups (N=5) and were treated every other day by IP injections with: […] (b) oxaliplatin (5.0 mg/kg); […] All animals were examined for signs of toxicity. Tumor volumes and body weights were determined weekly. […] The tumor volume is plotted in FIG. 2 as the mean tumor volume±standard error of the mean (SEM) for all animals in each particular dose group.
# [2] = test system: MCF-7 tumor cells (human breast cancer cell line)
# Protocol: Estradiol pellets (1 mg) were implanted interscapularly into twenty female athymic nude mice (NCR-nu/nu, Taconic) mouse. After 24 hours 1×10^7 MCF-7 tumor cells (breast cancer cell line) were implanted in the mammary fat pad of each mouse. The tumors produced by the tumor cell injections were allowed to grow for a period of 10-15 days until the tumors reached a size from 200 to 250 mm^3. The mice were then divided into four test groups (N=5) which were treated every other day by IP injections with: (a) (E)-2-(5-((2,4,6-trimethoxystyrylsulfonyl)methyl)-2-methoxyphenylamino)acetic acid sodium salt (200 mg/kg) dissolved in PBS; (b) doxorubicin (2.5 mg/kg) dissolved in PBS; (c) a combination of (E)-2-(5-((2,4,6-trimethoxystyrylsulfonyl)methyl)-2-methoxyphenylamino)acetic acid sodium salt (200 mg/kg) and doxorubicin (2.5 mg/kg) dissolved in PBS; or (d) PBS vehicle containing no drug. […] Body weights are plotted in FIG. 3(b) as the mean of the measured weights of all the animals in each dose group. Tumor volume was determined by measuring each tumor in two dimensions using traceable digital Vernier calipers. The tumor volume was calculated for each tumor using the equation: V=L×(S^2)π/6. The tumor volume is plotted in FIG. 3(a) as the mean tumor volume all animals in each particular dose group.
# [3] = test system: BEL-7402 tumor cells (human hepatoma cell line); assay type: in vivo; settings: BEL-7402 xenograft, IP every other day, Compound A 200 mg/kg, oxaliplatin 5 mg/kg, alone or combined
# Protocol: Twenty female athymic nude mice (NCR-nu/nu, Taconic) were injected subcutaneously with 1×10^7 BEL-7402 tumor cells (human hepatoma cell line). The tumors produced by the tumor cell injections were allowed to grow for a period of 10-14 days until the tumors reached a size from 200 to 250 mm^3. The mice were then divided into four test groups (N=5) which were treated every other day by intraperitoneal (IP) injections of: (a) (E)-2-(5-((2,4,6-trimethoxystyrylsulfonyl)methyl)-2-methoxyphenylamino)acetic acid sodium salt (Compound A) (200 mg/kg) dissolved in PBS; (b) oxaliplatin (5 mg/kg); (c) a combination of (E)-2-(5-((2,4,6-trimethoxystyrylsulfonyl)methyl)-2-methoxyphenylamino)acetic acid sodium salt (200 mg/kg) dissolved in PBS and oxaliplatin (5 mg/kg), or (d) PBS vehicle containing no drug. […] Body weights are plotted in FIG. 1(b) as the mean of the measured weights of all the animals in each dose group. Tumor volume was determined by measuring each tumor in two dimensions using traceable digital Vernier calipers (Fisher Scientific International Inc., Liberty Lane, Hampton, N.H. 03842). The tumor volume was calculated for each tumor using the equation: V=L×(S^2)π/6, wherein L is the longer, and S is the shorter of the two measured dimensions. […]
# [4] = test system: MCF-7 tumor cells (human breast cancer cell line); experiment: Doxorubicin toxicity and lethality in MCF-7 tumor-bearing nude mice (Example 9); assay type: in vivo
# Protocol: Estradiol pellets (1 mg) were implanted interscapularly into ten female athymic nude mice (NCR-nu/nu, Taconic) mouse. […] Body weights for the individual animals of group (a) are plotted in FIG. 4(a) and body weights for the individual animals of group (b) are plotted in FIG. 4(b).
# [5] = MCF-7 xenograft, IP every other day, Compound A 200 mg/kg, doxorubicin 2.5 mg/kg, alone or combined
SMILES,effect on tumor growth (mean tumor volume) [1],time at which tumors were of comparable volume to control tumors after 28 days ([1]; single agents),"survival of the animals [2, 5]","effect on tumor growth (mean tumor volume) ([2]; MCF-7 xenograft, IP every other day, Compound A 200 mg/kg, doxorubicin 2.5 mg/kg, alone or combined, sodium salt)",effect on tumor growth (mean tumor volume) ([3]; sodium salt),animals with major weight loss immediately preceding death ([4]; doxorubicin 1 mg/kg IP every other day alone),"body weight change ([4]; doxorubicin 1 mg/kg IP every other day, alone or with Compound A 200 mg/kg)","survival rate ([4]; doxorubicin 1 mg/kg IP every other day, alone or with Compound A 200 mg/kg, N=5)","effect on tumor growth (mean tumor volume) [2, 5]","tumor size when the animals had died ([2]; doxorubicin 2.5 mg/kg alone, by the 35th day)",effect on tumor growth (mean tumor volume) [3]
"COc1cc(OC)c(/C=C/S(=O)(=O)Cc2ccc(OC)c(NCC(=O)[O-])c2)c(OC)c1.[Na+] [(E)-2-(5-((2,4,6-trimethoxystyrylsulfonyl)methyl)-2-methoxyphenylamino)acetic acid sodium salt]",significant therapeutic response,63 days,84 days,significantly slowed the growth of the tumors; also recorded: comparable reduction in tumor growth,significant greater reduction in tumor growth; also recorded: slowed the growth of the tumor,,,,,,
COc1cccc2c1C(=O)c1c(O)c3c(c(O)c1C2=O)C[C@@](O)(C(=O)CO)C[C@@H]3O[C@H]1C[C@H](N)[C@H](O)[C@H](C)O1 [doxorubicin],,,,,,4 of the 5,initial suggestive weight gain,20%,significantly slowed the growth of the tumors,500 mm^3,
O=C1[O][Pt]2([NH][C@@H]3CCCC[C@H]3[NH]2)[O]C1=O [oxaliplatin],significant therapeutic response,,,,,,,,,,significant greater reduction in tumor growth; also recorded: slowed the growth of the tumor
